Laboratory results published in ChEMBL document CHEMBL3611969, “The effect of complexation of 3-formylrifamycin SV macrocyclic ether derivatives with metal cations and small nitrogen-containing organic molecules on antibacterial activity against S. aureus and S. epidermidis” (Bioorg Med Chem Lett, 2015).
Values after ≈ are worked out from the molar mass of the structure shown.

Columns and labels:
Staphylococcus aureus [1] = assay: Antibacterial activity against Staphylococcus aureus ATCC 6538 after 18 hrs by serial microdilution method; format: functional; settings: ATCC 6538, 18 h
Staphylococcus aureus [2] = assay: Antibacterial activity against Staphylococcus aureus ATCC 4163 after 18 hrs by serial microdilution method; format: functional; settings: ATCC 4163, 18 h
Staphylococcus aureus [3] = assay: Antibacterial activity against Staphylococcus aureus ATCC 25923 after 18 hrs by serial microdilution method; format: functional; settings: ATCC 25923, 18 h
[4] = test system: Staphylococcus epidermidis; assay: Antibacterial activity against Staphylococcus epidermidis ATCC 12228 after 18 hrs by serial microdilution method; format: functional; settings: ATCC 12228, 18 h
[5] = test system: Staphylococcus epidermidis; assay: Antibacterial activity against Staphylococcus epidermidis ATCC 49134 after 18 hrs by serial microdilution method; format: functional; settings: ATCC 49134, 18 h
[6] = Solubility of the compound in water at pH 7; format: physicochemical
[7] = Octanol-water partition coefficient, log P of the compound by UV-vis method; format: physicochemical
Staphylococcus aureus [8] = assay: Antibacterial activity against Staphylococcus aureus ATCC 6538 after 18 hrs by serial microdilution method in presence of isoniazid; format: functional; settings: ATCC 6538, 18 h
Staphylococcus aureus [9] = assay: Antibacterial activity against Staphylococcus aureus ATCC 6538 after 18 hrs by serial microdilution method in presence of 2-chlorobenzylamine; format: functional; settings: ATCC 6538, 18 h
Staphylococcus aureus [10] = assay: Antibacterial activity against Staphylococcus aureus ATCC 6538 after 18 hrs by serial microdilution method in presence of 4-fluorobenzylamine; format: functional; settings: ATCC 6538, 18 h
Staphylococcus aureus [11] = assay: Antibacterial activity against Staphylococcus aureus ATCC 6538 after 18 hrs by serial microdilution method in presence of histamine; format: functional; settings: ATCC 6538, 18 h
Staphylococcus aureus [12] = assay: Antibacterial activity against Staphylococcus aureus ATCC 4163 after 18 hrs by serial microdilution method in presence of 2-chlorobenzylamine; format: functional; settings: ATCC 4163, 18 h
Staphylococcus aureus [13] = assay: Antibacterial activity against Staphylococcus aureus ATCC 4163 after 18 hrs by serial microdilution method in presence of 4-fluorobenzylamine; format: functional; settings: ATCC 4163, 18 h
Staphylococcus aureus [14] = assay: Antibacterial activity against Staphylococcus aureus ATCC 4163 after 18 hrs by serial microdilution method in presence of isoniazid; format: functional; settings: ATCC 4163, 18 h
Staphylococcus aureus [15] = assay: Antibacterial activity against Staphylococcus aureus ATCC 4163 after 18 hrs by serial microdilution method in presence of histamine; format: functional; settings: ATCC 4163, 18 h
Staphylococcus aureus [16] = assay: Antibacterial activity against Staphylococcus aureus ATCC 25923 after 18 hrs by serial microdilution method in presence of 2-chlorobenzylamine; format: functional; settings: ATCC 25923, 18 h
Staphylococcus aureus [17] = assay: Antibacterial activity against Staphylococcus aureus ATCC 25923 after 18 hrs by serial microdilution method in presence of 4-fluorobenzylamine; format: functional; settings: ATCC 25923, 18 h
Staphylococcus aureus [18] = assay: Antibacterial activity against Staphylococcus aureus ATCC 25923 after 18 hrs by serial microdilution method in presence of isoniazid; format: functional; settings: ATCC 25923, 18 h
Staphylococcus aureus [19] = assay: Antibacterial activity against Staphylococcus aureus ATCC 25923 after 18 hrs by serial microdilution method in presence of histamine; format: functional; settings: ATCC 25923, 18 h
[20] = test system: Staphylococcus epidermidis; assay: Antibacterial activity against Staphylococcus epidermidis ATCC 12228 after 18 hrs by serial microdilution method in presence of 2-chlorobenzylamine; format: functional; settings: ATCC 12228, 18 h
[21] = test system: Staphylococcus epidermidis; assay: Antibacterial activity against Staphylococcus epidermidis ATCC 12228 after 18 hrs by serial microdilution method in presence of 4-fluorobenzylamine; format: functional; settings: ATCC 12228, 18 h
[22] = test system: Staphylococcus epidermidis; assay: Antibacterial activity against Staphylococcus epidermidis ATCC 12228 after 18 hrs by serial microdilution method in presence of isoniazid; format: functional; settings: ATCC 12228, 18 h
[23] = test system: Staphylococcus epidermidis; assay: Antibacterial activity against Staphylococcus epidermidis ATCC 12228 after 18 hrs by serial microdilution method in presence of histamine; format: functional; settings: ATCC 12228, 18 h
[24] = test system: Staphylococcus epidermidis; assay: Antibacterial activity against Staphylococcus epidermidis ATCC 49134 after 18 hrs by serial microdilution method in presence of 2-chlorobenzylamine; format: functional; settings: ATCC 49134, 18 h
[25] = test system: Staphylococcus epidermidis; assay: Antibacterial activity against Staphylococcus epidermidis ATCC 49134 after 18 hrs by serial microdilution method in presence of 4-fluorobenzylamine; format: functional; settings: ATCC 49134, 18 h
[26] = test system: Staphylococcus epidermidis; assay: Antibacterial activity against Staphylococcus epidermidis ATCC 49134 after 18 hrs by serial microdilution method in presence of isoniazid; format: functional; settings: ATCC 49134, 18 h
[27] = test system: Staphylococcus epidermidis; assay: Antibacterial activity against Staphylococcus epidermidis ATCC 49134 after 18 hrs by serial microdilution method in presence of histamine; format: functional; settings: ATCC 49134, 18 h

**Q.** What does the source list for `CO[C@H]1/C=C/O[C@@]2(C)Oc3c(C)c(O)c4c(O)c(c(CN5CCOCCOCCOCCOCCOCC5)c(O)c4c3C2=O)NC(=O)/C(C)=C\C=C\[C@H](C)[C@H](O)[C@@H](C)[C@@H](O)[C@@H](C)[C@H](OC(C)=O)[C@@H]1C`?
**A.** MIC (Staphylococcus aureus [1]): 4 µg/mL (≈ 4.11 µM); MIC (Staphylococcus aureus [2]): 4 µg/mL (≈ 4.11 µM); MIC (Staphylococcus aureus [3]): > 4 µg/mL; MIC [4]: 2 µg/mL (≈ 2.06 µM); MIC [5]: 2 µg/mL (≈ 2.06 µM); solubility [6]: 1200 µg/mL (≈ 1230 µM); logP [7]: -0.54

**Q.** What does the source list for `CO[C@H]1/C=C/O[C@@]2(C)Oc3c(C)c(O)c4c(O)c(c(CNc5ccc6c(c5)OCCOCCOCCOCCO6)c(O)c4c3C2=O)NC(=O)/C(C)=C\C=C\[C@H](C)[C@H](O)[C@@H](C)[C@@H](O)[C@@H](C)[C@H](OC(C)=O)[C@@H]1C`?
**A.** MIC (Staphylococcus aureus [1]): 2 µg/mL (≈ 2.01 µM); MIC (Staphylococcus aureus [8]): 1 µg/mL; MIC (Staphylococcus aureus [9]): 0.5 µg/mL; MIC (Staphylococcus aureus [10]): 0.5 µg/mL; MIC (Staphylococcus aureus [11]): 0.125 µg/mL; MIC (Staphylococcus aureus [2]): 2 µg/mL (≈ 2.01 µM); MIC (Staphylococcus aureus [12]): 0.5 µg/mL; MIC (Staphylococcus aureus [13]): 0.5 µg/mL; MIC (Staphylococcus aureus [14]): 1 µg/mL; MIC (Staphylococcus aureus [15]): 0.125 µg/mL; MIC (Staphylococcus aureus [3]): 2 µg/mL (≈ 2.01 µM); MIC (Staphylococcus aureus [16]): 0.5 µg/mL; MIC (Staphylococcus aureus [17]): 0.5 µg/mL; MIC (Staphylococcus aureus [18]): 1 µg/mL; MIC (Staphylococcus aureus [19]): 0.125 µg/mL; MIC [4]: 0.5 µg/mL (≈ 0.503 µM); MIC [20]: 0.25 µg/mL; MIC [21]: 0.25 µg/mL; MIC [22]: 0.25 µg/mL; MIC [23]: 1.25 µg/mL; MIC [5]: 0.5 µg/mL (≈ 0.503 µM); MIC [24]: 0.25 µg/mL; MIC [25]: 0.25 µg/mL; MIC [26]: 0.25 µg/mL; MIC [27]: 0.125 µg/mL; logP [7]: 0.2

**Q.** Which results are given for `CO[C@H]1/C=C/O[C@@]2(C)Oc3c(C)c(O)c4c(O)c(c(CNc5ccc6c(c5)OCCOCCOc5ccccc5OCCOCCO6)c(O)c4c3C2=O)NC(=O)/C(C)=C\C=C\[C@H](C)[C@H](O)[C@@H](C)[C@@H](O)[C@@H](C)[C@H](OC(C)=O)[C@@H]1C`?
**A.** MIC (Staphylococcus aureus [1]): 1 µg/mL (≈ 0.921 µM); MIC (Staphylococcus aureus [8]): 1 µg/mL; MIC (Staphylococcus aureus [9]): 0.25 µg/mL; MIC (Staphylococcus aureus [10]): 0.25 µg/mL; MIC (Staphylococcus aureus [11]): 0.125 µg/mL; MIC (Staphylococcus aureus [2]): 2 µg/mL (≈ 1.84 µM); MIC (Staphylococcus aureus [12]): 0.25 µg/mL; MIC (Staphylococcus aureus [13]): 0.25 µg/mL; MIC (Staphylococcus aureus [14]): 1 µg/mL; MIC (Staphylococcus aureus [15]): 0.125 µg/mL; MIC (Staphylococcus aureus [3]): 2 µg/mL (≈ 1.84 µM); MIC (Staphylococcus aureus [16]): 0.25 µg/mL; MIC (Staphylococcus aureus [17]): 0.25 µg/mL; MIC (Staphylococcus aureus [18]): 1 µg/mL; MIC (Staphylococcus aureus [19]): 0.125 µg/mL; MIC [4]: 0.5 µg/mL (≈ 0.461 µM); MIC [20]: 0.25 µg/mL; MIC [21]: 0.25 µg/mL; MIC [22]: 0.5 µg/mL; MIC [23]: 1.25 µg/mL; MIC [5]: 0.5 µg/mL (≈ 0.461 µM); MIC [24]: 0.25 µg/mL; MIC [25]: 0.25 µg/mL; MIC [26]: 0.5 µg/mL; MIC [27]: 0.125 µg/mL; solubility [6]: < 50 µg/mL; logP [7]: 1.12

**Q.** With `[Li+].[O-][Cl+3]([O-])([O-])[O-]` as the compound, how does the MIC (Staphylococcus aureus [1]) read?
**A.** Its MIC is over 4 µg/mL.

**Q.** And the MIC (Staphylococcus aureus [2])?
**A.** Its MIC is over 4 µg/mL.

**Q.** What about the MIC (Staphylococcus aureus [3]) of the same compound?
**A.** Its MIC is over 4 µg/mL.

**Q.** And the MIC [4]?
**A.** Its MIC is over 4 µg/mL.

**Q.** What about the MIC [5] of the same compound?
**A.** The MIC was over 4 µg/mL.

**Q.** With `NCCc1c[nH]cn1` [HISTAMINE] as the compound, how does the MIC (Staphylococcus aureus [1]) read?
**A.** Its MIC is over 4 µg/mL.

**Q.** What about the MIC (Staphylococcus aureus [2]) of the same compound?
**A.** Its MIC is over 4 µg/mL.

**Q.** What about the MIC (Staphylococcus aureus [3]) of the same compound?
**A.** The MIC was over 4 µg/mL.

**Q.** What about the MIC [4] of the same compound?
**A.** Its MIC is over 4 µg/mL.

**Q.** And the MIC [5]?
**A.** The MIC was over 4 µg/mL.

**Q.** With `NNC(=O)c1ccncc1` [ISONIAZID] as the compound, how does the MIC (Staphylococcus aureus [1]) read?
**A.** The MIC was over 4 µg/mL.

**Q.** And the MIC (Staphylococcus aureus [2])?
**A.** Its MIC is over 4 µg/mL.

**Q.** What about the MIC (Staphylococcus aureus [3]) of the same compound?
**A.** The MIC was over 4 µg/mL.

**Q.** What about the MIC [4] of the same compound?
**A.** Its MIC is over 4 µg/mL.

**Q.** What about the MIC [5] of the same compound?
**A.** The MIC was over 4 µg/mL.

**Q.** What does the source list for `CO[C@H]1/C=C/O[C@@]2(C)Oc3c(C)c(O)c4c(O)c(c(/C=N/N5CCN(C)CC5)c(O)c4c3C2=O)NC(=O)/C(C)=C\C=C\[C@H](C)[C@H](O)[C@@H](C)[C@@H](O)[C@@H](C)[C@H](OC(C)=O)[C@@H]1C` [RIFAMPIN]?
**A.** MIC (Staphylococcus aureus [1]): 0.016 µg/mL (≈ 0.0194 µM); MIC (Staphylococcus aureus [2]): 0.016 µg/mL (≈ 0.0194 µM); MIC (Staphylococcus aureus [3]): 0.016 µg/mL (≈ 0.0194 µM); MIC [4]: 0.008 µg/mL (≈ 0.00972 µM); MIC [5]: 0.008 µg/mL (≈ 0.00972 µM)

**Q.** For `[Na+].[O-][Cl+3]([O-])([O-])[O-]` [SODIUM PERCHLORATE], which MIC (Staphylococcus aureus [1]) is on record?
**A.** Its MIC is over 4 µg/mL.

**Q.** And the MIC (Staphylococcus aureus [2])?
**A.** Its MIC is over 4 µg/mL.

**Q.** And the MIC (Staphylococcus aureus [3])?
**A.** The MIC was over 4 µg/mL.

**Q.** What about the MIC [4] of the same compound?
**A.** The MIC was over 4 µg/mL.

**Q.** What about the MIC [5] of the same compound?
**A.** The MIC was over 4 µg/mL.
